Reference: patent publication US20250213707A1, “COMPOUND FOR INCREASING EFFICACY OF ONCOLYTIC VIRUSES” (ABLEVIA BIOTECH GMBH, priority 2022, published 2025)

Test system: mAb ADK8
Experiment: Epitope mapping of mAb ADK8 against AAV peptides
Format: binding, mice
Details: not given
Text: Monoclonal antibody ADK8 was generated by immunizing mice with AAV8 capsids. It is directed against the assembled AAV8 capsid (Sonntag et al, 2011). […] Moreover, the binding of AAV8 to the nuclear membrane as well as the nuclear entry were abrogated following neutralization by ADK8. […] ADK8 also cross-reacts with capsid proteins from other AAV serotypes such as AAV1, AAV3, AAV7 (Mietzsch et al, 2014) and was therefore chosen as an example from which general conclusions about the present invention can be drawn.
As for the other antibodies (see examples above), several clusters were identified, delineating regions from which preferred peptides can be deduced. Most preferably, the peptides aligned below according to their binding strengths can be used for selective antibody depletion and detection as hereinabove.

Row | Substance | peptide number according to binding strength
1 | 351 (IDQYLYY) [compound 351] | 36
2 | 321 (FGYSTPWGYF) [compound 321] | 09
3 | 323 (YSTPWGYFDF) [compound 323] | 11
4 | 325 (TPWGYFDFNRFHC) [compound 325] | 18
5 | 329 (FGYSTPWGYFDFN) [compound 329] | 34
6 | 345 (AVGRSSFYCLEYF) [compound 345] | 22
7 | 349 (DQYLYYL) [compound 349] | 19
8 | 342 (VLGSAHQGCL) [compound 342] | 45
9 | 350 (PLIDQYLYYL) [compound 350] | 29
10 | 339 (YVLGSAHQGC) [compound 339] | 37
11 | 322 (GYSTPWGYFD) [compound 322] | 10
12 | 331 (WLPGPCY) [compound 331] | 15
13 | 338 (LPYVLGSAHQGCL) [compound 338] | 32
14 | 340 (CLPPFPA) [compound 340] | 38
15 | 341 (SAHQGCLPPF) [compound 341] | 39
16 | 315 (DVYLQGP) [compound 315] | 05
17 | 347 (QAVGRSSFYCLEY) [compound 347] | 33
18 | 336 (GCLPPFP) [compound 336] | 13
19 | 330 (NWLPGPC) [compound 330] | 04
20 | 343 (PYVLGSAHQGCLP) [compound 343] | 46
21 | 328 (YFGYSTPWGY) [compound 328] | 28
22 | 337 (VLGSAHQGCLPPF) [compound 337] | 27
23 | 317 (LQGPIWA) [compound 317] | 12

Test system: IgG from human donors (anti-AAV antibodies)
Experiment: Screen for anti-AAV antibodies in human sera based on cyclic 14-amino-acid AAV peptides on microarrays (Table 2)
Format: binding
Design: key: X: the deduplicated aggregate of the respective top 50 peptide hits for each donor was compiled and designated as group I
Details: human donor IgG; circularized AAV peptides; top 50 peptide hits for each donor
Method: More than 1200 cyclic peptides derived from the sequences of human and rhesus monkey AAV sequences and artificial AAV sequences according to Table 2 and with a sequence length of 14 amino-acids each were synthesized.
Samples obtained from human donors were screened for antibodies against these AAV-derived peptides immobilized on microarrays. To this end, IgG was prepared from blood obtained from the human donors by protein G purification. Each IgG sample was incubated with the peptide microarrays and Ig binding signals were detected by fluorescence. All antibody binding signals to the peptides on the arrays were background subtracted and ranked for each sample and a deduplicated aggregate of the respective top 250 peptide hits for each donor with the corresponding protein sequence of origin (as obtained from UniProt or other sources) was compiled (designated as group II). Further, the deduplicated aggregate of the respective top 50 peptide hits for each donor was compiled and designated as group I.
Altogether, group I contains 47 distinct peptide hits (assigned to the corresponding AAV vectors in Table 2) and group II yielded 172 distinct peptide hits. Evidently, group I is a subset of group II.

Row | Substance | group I
24 | 1904 (YHLNGRDSLVNPGP; REGION 1..14: note = peptide derived from viral capsid protein) [compound 1904] | X
25 | 1917 (HYFGYSTPWGYFDF; REGION 1..14: note = peptide derived from viral capsid protein) [compound 1917] | X
26 | 1910 (FNIQVKEVTTNDGV; REGION 1..14: note = peptide derived from viral capsid protein) [compound 1910] | X
27 | 1933 (DKDKFFPMSGVMIF; REGION 1..14: note = peptide derived from viral capsid protein) [compound 1933] | X
28 | 1923 (TAPGKKRPVDQSPQ; REGION 1..14: note = peptide derived from viral capsid protein) [compound 1923] | X
29 | 1900 (LIKNTPVPADPPTT; REGION 1..14: note = peptide derived from viral capsid protein) [compound 1900] | X
30 | 1892 (DSQWLGDRVITTST; REGION 1..14: note = peptide derived from viral capsid protein) [compound 1892] | X
31 | 1896 (KIFNIQVKEVTTSN; REGION 1..14: note = peptide derived from viral capsid protein) [compound 1896] | X
32 | 1913 (QLKAGDNPYLRYNH; REGION 1..14: note = peptide derived from viral capsid protein) [compound 1913] | X
33 | 1918 (APGKKRPVDQSPQE; REGION 1..14: note = peptide derived from viral capsid protein) [compound 1918] | X
34 | 1935 (EEEIKTTNPVATEE; REGION 1..14: note = peptide derived from viral capsid protein) [compound 1935] | X
35 | 1895 (ANNLTSTVQIFADS; REGION 1..14: note = peptide derived from viral capsid protein) [compound 1895] | X
36 | 1901 (PQYGYLTLNNGSQA; REGION 1..14: note = peptide derived from viral capsid protein) [compound 1901] | X
37 | 1938 (PLVDQYLYRFVSTN; REGION 1..14: note = peptide derived from viral capsid protein) [compound 1938] | X
38 | 1898 (LEDNLSEGIREWWD; REGION 1..14: note = peptide derived from viral capsid protein) [compound 1898] | X
39 | 1920 (KTAPGKKRPVDQSP; REGION 1..14: note = peptide derived from viral capsid protein) [compound 1920] | X
40 | 1903 (NYNKSVNVDFTVDT; REGION 1..14: note = peptide derived from viral capsid protein) [compound 1903] | X
41 | 1897 (GNTSQQQTDRNAFY; REGION 1..14: note = peptide derived from viral capsid protein) [compound 1897] | X
42 | 1907 (IFNIQVKEVTTSNG; REGION 1..14: note = peptide derived from viral capsid protein) [compound 1907] | X
43 | 1921 (PEIQYTSNYNKSVN; REGION 1..14: note = peptide derived from viral capsid protein) [compound 1921] | X
44 | 1932 (DEEEIKATNPVATE; REGION 1..14: note = peptide derived from viral capsid protein) [compound 1932] | X
45 | 1902 (DEEEIRTTNPVATE; REGION 1..14: note = peptide derived from viral capsid protein) [compound 1902] | X
46 | 1919 (GKKRPVDQSPQEPD; REGION 1..14: note = peptide derived from viral capsid protein) [compound 1919] | X
47 | 1899 (SESVPDPQPIGEPP; REGION 1..14: note = peptide derived from viral capsid protein) [compound 1899] | X
48 | 1937 (DDEDKFFPMSGVMI; REGION 1..14: note = peptide derived from viral capsid protein) [compound 1937] | X
49 | 1928 (DKAYDQQLQAGDNP; REGION 1..14: note = peptide derived from viral capsid protein) [compound 1928] | X
50 | 1927 (GTNTMATGSGAPMA; REGION 1..14: note = peptide derived from viral capsid protein) [compound 1927] | X
51 | 1912 (PQILIKNTPVPADP; REGION 1..14: note = peptide derived from viral capsid protein) [compound 1912] | X
52 | 1934 (LQQQNTAPQIGTVN; REGION 1..14: note = peptide derived from viral capsid protein) [compound 1934] | X
53 | 1922 (SESVPDPQPLGEPP; REGION 1..14: note = peptide derived from viral capsid protein) [compound 1922] | X
